Key:
[1] = plasma stability in mouse plasma; type: in vitro ADME; details: mouse plasma; solubilized in 2-Hydroxypropyl)-beta-cyclodextrin or captisol, depending on the solvent
Protocol: Stability of NA115 was evaluated with NA115 solubilized in 2-Hydroxypropyl)-beta-cyclodextrin or in captisol.
Moreover, 1 mM of the NA115 in beta-cyclodextrin was diluted 5 times in freshly prepared mouse plasma (200 μM NA115 in plasma). The mixture was incubated at 37 degree. At indicated time point, 1 μl of the mixture was added to 99 ul of calpain assay solution containing 5 mM Ca2+, 200 μM Suc-Leu-Tyr-AMC substrate and 100 nM calpain-2. Hydrolysis rate was monitored in the plate reader. As a control, 1 μl of plasma alone was subjected to calpain assay and its hydrolysis rate was set as 100% of calpain activity.

calpain-2 [2] = target: T1, calpain-2 (Homo sapiens, UniProt P17655); test: IC50 on calpain-1 and calpain-2 activities (Wang et al., 2014), selectivity; type: biochemical
T1 sequence (P17655 1-700): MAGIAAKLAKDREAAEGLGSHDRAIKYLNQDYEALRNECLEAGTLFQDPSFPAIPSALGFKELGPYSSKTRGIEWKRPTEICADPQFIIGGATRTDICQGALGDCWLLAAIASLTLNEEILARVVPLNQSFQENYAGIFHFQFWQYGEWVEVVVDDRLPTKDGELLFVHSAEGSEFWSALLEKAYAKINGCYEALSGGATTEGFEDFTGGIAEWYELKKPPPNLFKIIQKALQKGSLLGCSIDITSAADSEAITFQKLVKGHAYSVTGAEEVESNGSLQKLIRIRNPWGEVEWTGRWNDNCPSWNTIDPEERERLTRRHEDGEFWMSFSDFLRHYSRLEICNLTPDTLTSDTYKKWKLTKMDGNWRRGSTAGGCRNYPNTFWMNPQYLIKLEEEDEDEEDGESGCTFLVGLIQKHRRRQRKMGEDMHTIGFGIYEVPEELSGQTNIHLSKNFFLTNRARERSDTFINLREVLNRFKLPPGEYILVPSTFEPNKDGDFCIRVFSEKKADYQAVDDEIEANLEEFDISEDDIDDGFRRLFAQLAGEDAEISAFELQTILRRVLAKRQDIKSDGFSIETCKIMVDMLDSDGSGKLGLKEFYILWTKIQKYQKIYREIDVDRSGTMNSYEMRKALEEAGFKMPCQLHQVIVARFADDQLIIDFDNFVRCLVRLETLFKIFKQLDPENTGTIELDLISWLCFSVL
T1 sequence (P04632 1-268 partner): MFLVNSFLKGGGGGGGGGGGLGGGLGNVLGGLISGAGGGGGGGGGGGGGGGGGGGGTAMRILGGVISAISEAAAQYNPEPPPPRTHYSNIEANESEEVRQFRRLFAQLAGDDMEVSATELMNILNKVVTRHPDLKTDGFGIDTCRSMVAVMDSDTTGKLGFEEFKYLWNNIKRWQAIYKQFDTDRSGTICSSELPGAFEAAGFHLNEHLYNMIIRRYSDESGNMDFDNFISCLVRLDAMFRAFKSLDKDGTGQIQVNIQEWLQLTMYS
Protocol: These compounds can be calpain-2 selective inhibitors. […] IC50 values for NA115 on the activity of calpain-1 and calpain-2 activities were measured (Wang et al., 2014). […] The selectivity of NA117 was 24.1. [0016] Pharmaceutical compositions of the invention comprise NA115 and NA117, and a pharmaceutically acceptable excipient. Excipients used in pharmaceutical composition of the invention are safe and provide the appropriate delivery for the desired route of administration, of an effective amount of NA115 and NA117.

human calpain-1 = target: T2, human calpain-1 (Homo sapiens, UniProt P07384); test: in vitro calpain assay with succinic-Leu-Tyr-AMC, calpain-1; type: biochemical; details: human calpain-1, succinic-Leu-Tyr-AMC
T2 sequence (P07384 1-714): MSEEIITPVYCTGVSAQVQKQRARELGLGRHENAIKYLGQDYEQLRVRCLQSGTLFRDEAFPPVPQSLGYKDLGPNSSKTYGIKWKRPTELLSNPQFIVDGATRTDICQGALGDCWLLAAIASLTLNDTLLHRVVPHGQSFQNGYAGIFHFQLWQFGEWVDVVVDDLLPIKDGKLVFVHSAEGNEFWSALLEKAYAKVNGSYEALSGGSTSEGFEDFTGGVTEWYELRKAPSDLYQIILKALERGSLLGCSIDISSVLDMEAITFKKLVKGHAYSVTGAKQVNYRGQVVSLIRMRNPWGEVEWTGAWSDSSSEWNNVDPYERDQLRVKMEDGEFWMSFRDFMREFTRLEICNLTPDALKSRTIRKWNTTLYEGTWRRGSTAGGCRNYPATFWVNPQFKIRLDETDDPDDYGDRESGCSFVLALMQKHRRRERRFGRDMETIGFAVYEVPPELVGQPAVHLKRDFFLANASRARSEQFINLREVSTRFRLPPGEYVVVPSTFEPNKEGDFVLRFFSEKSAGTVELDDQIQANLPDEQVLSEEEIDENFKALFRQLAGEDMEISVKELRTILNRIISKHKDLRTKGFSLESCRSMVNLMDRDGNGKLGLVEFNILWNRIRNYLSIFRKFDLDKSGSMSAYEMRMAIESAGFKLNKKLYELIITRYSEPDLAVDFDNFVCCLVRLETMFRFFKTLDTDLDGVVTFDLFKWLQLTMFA
T2 sequence (P04632 1-268 partner): T1 sequence (P04632 1-268 partner)
Protocol: (§1) NA115A (Compound 15 (S above) was introduced at various concentrations into an in vitro mix comprising succinic-Leu-Tyr-AMC and human calpain-1 or calpain-2 (Sasaki et al, 1984), and the kinetics of the […] of fluorescence were determined for each of the calpains. The Kis of NA115, NA115A and NA115B for calpain-1 and calpain-2 are shown in Tables 1-2 below. The efficacy of NA115 against calpain-1 or calpain-2 appears to be only in NA115A.

[3] = tested on: calpain-2 activation in the retina; test: acute glaucoma model (increased IOP), SBDP immunohistochemistry in retina; type: in vivo; details: mouse
Protocol: Immunohistochemistry for SBDP (green) in sections from a sham animal (surgery only), animal subjected to increased IOP and injected intraocularly with vehicle (10% DMSO in PBS, 1 μl; IOP)), increased IOP and injected with NA115 (40 μM, 100 μM, and 200 μM). Blue staining represents cell nuclear staining with the retinal ganglion cells on the upper layer.
For each image, mean fluorescence intensity (MFI) is analyzed in the inner plexiform layer (layer between the 2 cell body layers in FIG. 1). Three frozen sections (20 μm-thick), cut through the optic disc of each eye, were collected and stained with SBDP antibody. In each section, three images were captured under 60× objective of a confocal microscope (LSM-880). For each image, MFI (mean fluorescence intensities) in the IPL layer were measured in ImageJ and averaged. N=2 animals/group.
Same experimental procedure as in FIGS. 1-4. NA117 was injectedintraocularly at a concentration of 200 μM). One-way ANOVA followed by Bonferroni test. *p<0.05, **p<0.01. Results are means±SEM of 2 animals. Scale bar=20 microns.
(§2) The model of acute glaucoma previously reported in Wang et al. (2016) was used. In this model, intraocular pressure (IOP) was increased to 110 mm Hg for 1 h with the mouse under anesthesia. Two h later mice received an intraocular injection of various concentrations of a calpain-2 inhibitor and were returned to their home cages. […]

calpain-2 [4] = target: T1, calpain-2; test: in vitro calpain assay with succinic-Leu-Tyr-AMC, calpain-2; type: biochemical; details: for IC50 / Ki: human calpain-2, succinic-Leu-Tyr-AMC
Protocol: as §1

retinal ganglion cells = test: acute glaucoma model (increased IOP), beta-III tubulin staining of retinal wholemounts; type: in vivo; details: mouse, 200 μM, 1 μl intraocular 2 h after IOP elevation, 3 days after increased IOP
Protocol: Immunohistochemistry is shown with staining in the peripheral area of retinal wholemounts, with anti-beta-III tubulin, a marker for retinal ganglion cells, 3 days after increased IOP in a sham animal, an animal subjected to increased IOP and injected with vehicle (10% DMSO in PBS, 1 μl; IOP)) and an animal subjected to increased IOP and injected with NA115 (200 μM). Scale bar=100 microns.
Vehicle (10% DMSO in PBS, 1 μl) or NA115 (200 μM, 1 μl) was injected 2 h after IOP elevation. Retinal whole mounts were prepared 3 days after the surgery. One-way ANOVA followed by Bonferroni test. ****p<0.0001, **p<0.01. N=8 for Sham. N=7 for IOP, IOP+NA115.
as §2, with “cages. They were sacrificed 4 h later for determination of calpain activity using immunohistochemistry to stain for the spectrin breakdown product (SBDP) selectively generated by calpain-mediated truncation of spectrin. Previous studies (Wang et al., 2016) have shown that, at this time-point calpain activity represents calpain-2 activity.” for “cages.”

[5] = epimerization in pig vitreous fluid, aliquots tested in the calpain-2 assay; type: in vitro ADME; details: 35° C.; for change of inhibitory effect in the calpain-2 assay after incubation: 2 μM, various periods of time
Protocol: NA115A or NA115B (2 μM) was incubated with pig vitreous fluid for various periods of time at 35° C. Aliquots were then tested in the calpain-2 assay. […] (FIGS. 9A-9D).

| IC50 (human calpain-1) [nM] | Ki (human calpain-1) [nM] | IC50 (calpain-2 [4]) [nM] | Ki (calpain-2 [4]) [nM] | change of inhibitory effect in the calpain-2 assay after incubation [5] | epimerization [5] | SMILES | half-life at 200 μM [1] [h] | selectivity for calpain-2, ratio of IC50 calpain-1/IC50 calpain-2 (calpain-2 [2]) | inhibition of calpain-2 activation (SBDP staining) in the retina following increased IOP ([3]; intraocular injection 40 μM, 100 μM, 200 μM, 2 h after IOP elevation, sacrificed 4 h later) | Ratio KiCalpain-1/KiCalpain-2 (calpain-2 [4]) | protection of retinal ganglion cells (anti-beta-III tubulin positive cells) from increased IOP-induced cell death (retinal ganglion cells) | inhibition of calpain activation (SBDP staining) following increased IOP ([3]; intraocular injection 200 μM) |
| --- | --- | --- | --- | --- | --- | --- | --- | --- | --- | --- | --- | --- |
| 331 | 189 | 196 | 124 | rapid decrease in the inhibitory effect | rapid epimerization | CC[C@H](NC(=O)[C@H](CC(C)C)NC(=O)CCc1ccccc1)C(=O)C(=O)NCc1cc(F)cc(OC)c1 [NA115A] |  |  |  | 1.5 |  |  |
| > 10000 | > 10000 | > 10000 | > 10000 | increased inhibitory effect | rapid epimerization | CC[C@@H](NC(=O)[C@H](CC(C)C)NC(=O)CCc1ccccc1)C(=O)C(=O)NCc1cc(F)cc(OC)c1 [NA115B] |  |  |  |  |  |  |
|  |  |  |  |  |  | CCC(NC(=O)[C@H](CC(C)C)NC(=O)CCc1ccccc1)C(=O)C(=O)NCc1cccc(OC)c1 (stereo partly drawn) [NA117, N-(3-methoxybenzyl)-3-((S)-4-methyl-2-(3-phenylpropanamido)pentanamido)-2-oxopentanamide] |  | 24.1 |  |  |  | also inhibits calpain activation following increased IOP |

| SMILES | IC50 (human calpain-1) [nM] | Ki (human calpain-1) [nM] | IC50 (calpain-2 [4]) [nM] | Ki (calpain-2 [4]) [nM] | change of inhibitory effect in the calpain-2 assay after incubation [5] | epimerization [5] | half-life at 200 μM [1] [h] | selectivity for calpain-2, ratio of IC50 calpain-1/IC50 calpain-2 (calpain-2 [2]) | inhibition of calpain-2 activation (SBDP staining) in the retina following increased IOP ([3]; intraocular injection 40 μM, 100 μM, 200 μM, 2 h after IOP elevation, sacrificed 4 h later) | Ratio KiCalpain-1/KiCalpain-2 (calpain-2 [4]) | protection of retinal ganglion cells (anti-beta-III tubulin positive cells) from increased IOP-induced cell death (retinal ganglion cells) | inhibition of calpain activation (SBDP staining) following increased IOP ([3]; intraocular injection 200 μM) |
| --- | --- | --- | --- | --- | --- | --- | --- | --- | --- | --- | --- | --- |
| CCC(NC(=O)[C@H](CC(C)C)NC(=O)CCc1ccccc1)C(=O)C(=O)NCc1cc(F)cc(OC)c1 (stereo partly drawn) [NA115, N-(3-fluoro-5-methoxybenzyl)-3-((S)-4-methyl-2-(3-phenylpropanamido)-pentanamido)-2-oxopentanamide] | 750 | 470 | 170 | 103 |  |  | 9 to 15 | 31.7 | dose-dependently inhibiting calpain-2 activation in the retina following increased IOP | 4.5 | protects against retinal ganglion from increased ocular pressure-induced cell death |  |

— US20210179543A1, “CALPAIN-2 SELECTIVE INHIBITOR COMPOUNDS FOR TREATMENT OF GLAUCOMA” (Western University of Health Sciences, priority 2018, published 2021)
